Measured values from PMC8456950, “Structure‐Guided Design of G‐Protein‐Coupled Receptor Polypharmacology” (Angewandte Chemie (International Ed. in English), 2021).

Legend:
Human A2AAR = Human A2AAR (Homo sapiens, UniProt P29274); test: A2AAR competition binding ([3H]-ZM241385 displacement); parameters: expressed in transfected cells; host or cells: HeLa-A2AAR cell line (membranes); conditions: radioligand displacement, mean±SEM of three experiments in duplicate; read-out: A2AAR binding affinity Ki
Chain of Human A2AAR (P29274 whole entry): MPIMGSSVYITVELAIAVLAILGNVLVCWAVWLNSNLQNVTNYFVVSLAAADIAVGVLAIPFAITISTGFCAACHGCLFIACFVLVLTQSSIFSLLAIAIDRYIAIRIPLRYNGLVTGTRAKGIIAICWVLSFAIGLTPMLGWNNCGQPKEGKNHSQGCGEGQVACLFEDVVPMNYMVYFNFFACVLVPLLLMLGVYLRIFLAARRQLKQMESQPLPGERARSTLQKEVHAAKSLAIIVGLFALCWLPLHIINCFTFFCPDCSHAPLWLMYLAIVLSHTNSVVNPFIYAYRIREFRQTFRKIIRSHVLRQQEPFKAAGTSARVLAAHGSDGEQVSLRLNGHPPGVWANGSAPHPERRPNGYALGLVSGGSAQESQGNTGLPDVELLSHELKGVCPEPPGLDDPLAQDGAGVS
Method: Binding assays. Human A2AAR competition binding experiments were carried out in multiscreen GF/C 96-well plates (Millipore, Madrid, Spain) pretreated with binding buffer (50 mM Tris-HCl, 1 mM EDTA, 10 mM MgCl2, 2 U/ml adenosine deaminase, pH=7.4).
Each well contained 5 µg of membranes from a He l a-A2AAR cell line (protein concentration […]
compound studied. Non-specific binding was determined in the presence of 50 µM NE C A (Sigma E2387). The reaction mixture (200 µl/well) was incubated at 25 °C for 30 min, after which it was filtered and washed four times with 250 µl wash buffer (50 mM Tris -HCl, 1 mM EDTA, 10 mM MgCl 2, pH=7. 4) before measuring in a microplate beta scintillation counter (Microbeta Trilux, PerkinElmer, Madrid, Spain). Three independent experiments were carried out to calculate K i values (n=3). […]

Human D2R = target: T1, Human D2R (Homo sapiens, UniProt P14416); test: D2R functional cAMP (HTRF) assay in CHO-D2 #S20 cells; assay type: cell-based; conditions: for EC50: cAMP HTRF, CHO-D2 cells, forskolin 10 µM, mean±SEM n=3; for Emax: relative to the maximal effect of dopamine
T1 construct: expressed in transfected cells; host or cells: CHO-D2R #S20 cell line (membranes)
T1 sequence (P14416 whole entry): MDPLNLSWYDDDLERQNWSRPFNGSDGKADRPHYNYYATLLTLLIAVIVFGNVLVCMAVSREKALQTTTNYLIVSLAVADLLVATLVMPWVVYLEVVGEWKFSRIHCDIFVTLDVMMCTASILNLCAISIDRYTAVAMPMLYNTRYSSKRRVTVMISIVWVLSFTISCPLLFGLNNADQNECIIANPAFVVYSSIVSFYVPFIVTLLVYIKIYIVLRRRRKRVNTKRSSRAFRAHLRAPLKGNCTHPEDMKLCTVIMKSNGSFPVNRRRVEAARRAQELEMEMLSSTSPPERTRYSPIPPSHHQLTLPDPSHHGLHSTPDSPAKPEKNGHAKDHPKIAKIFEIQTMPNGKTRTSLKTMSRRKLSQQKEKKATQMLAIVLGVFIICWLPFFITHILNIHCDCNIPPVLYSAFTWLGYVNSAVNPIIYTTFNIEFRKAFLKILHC
Method: KB=I C50/(1+([NECA]/EC50 NECA)).
Functional assays for the human D2R were carried out in a CHO-D2 #S20 cell line. 5,000 cells were seed ed in 30 µl of Opti-ME M (Invitrogen 11058) and 500µM IBMX (Sigma 17018) on a 96-well isoplate (PerkinElmer 6005030). The studied compounds wer e then added and incubated for 10 min at 37 °C with gentle stirring (150 rpm). Then, 10 µM […]
forskolin (Sigma 17018) was added and incubated for 5 min at 37 °C with gentle stirring (150 rpm). Reagents (#CISBIO 62AM4PEC) were added and, after incubation for 60 min at rt with gentle stirring (90 rpm) and protected from light, homogeneous time resolved fluorescence (HTRF, λEx: 320 nm; λEm: 620-665 nm) from each well was measured using a Tecan Infinite M1000 Pro. Data were normalized to the maximum effect of dopamine. EC50 and Ema x values were obtained after fitting the d ata to a four -parameter logistic equatio n using Prism V2. 1 (Graph Pad Inc, Chicago, USA) . […]

[1] = Blood-brain distribution in rats; assay type: in vivo; conditions: male, Sprague Dawley, rat, 24 mg kg^−1 IP
Method: Blood-brain distribution. Measurements of blood-brain distribution in rats were performed by Admescope (Finland). The male Sprague Dawley rats (120-157 g) were housed in air-conditioned rooms (12h dark/light cycle) at 22 °C and a humidity of 55%. Animals were allowed to acclimatize to the site for at least five days prior to the study.
Compound 30 (24 mg/kg, formulated in 17% DMSO in saline) was administered intraperitoneally and blood samples were collected at 10, 30, and 50 min after dosing. Within 30 min following the sampling, the blood was centrifuged for plasma separation (room temperature; 10 min; 2700 G). The plasma samples were transferred into plastic tubes, frozen and stored at –20 °C until analysis. Brains were perfused under terminal isoflurane anaesthesia at 10, 30 and 50 min after dosing (n=6 per time point). For the perfusion, the heart of the rat was expo sed and major veins leading to the right atrium were severed. […]
Evaluation of compound 30 in rodent model of Parkinsonism. […] Two weeks after the unilateral 6-OHDA lesion, rats were injected with apomorphine (1 mg/kg, IP; Sigma) and their contralateral rotations were measured to determine the degree of nigrostriatal denervation. […] The number of rotations was calculated automatically with Noldus EthoVision XT11. […]

SMILES	Ki (Human A2AAR) [nM]	EC50 (Human D2R) [nM]	Emax (Human D2R) [%]	concentration at 30 min ([1]; brain, at 30 min, read-out: total concentration in the brain) [nM]	Kp at 0.5 h ([1]; brain/plasma, peak after 30 min, mean±SD, read-out: brain-to-plasma ratio)
CCCN(CCCCC(=O)Nc1nc2c(Br)cccc2s1)C1Cc2ccccc2C1 [Compound 27]	390 ± 50	180 ± 30	89 ± 4		
CCN(CCCCC(=O)Nc1nc2c(Br)cccc2s1)C1Cc2ccccc2C1 [Compound 22]	340 ± 50	2500 ± 900	119 ± 6		
CCCN(CCCCC(=O)Nc1nc2c(OC)ccc(OC)c2s1)C1Cc2ccccc2C1 [Compound 30]	160 ± 30	180 ± 40	77 ± 5	~3000	0.79 ± 0.13
CCCN(CCCCC(=O)Nc1nc2c(OC)cccc2s1)C1Cc2ccccc2C1 [Compound 26]	610 ± 90	990 ± 380	94 ± 3		
